For eight molecules, ring closure, isolated yield results are on record in publication PMC11059095.

One data set can be described thus: Brønsted acid catalysed 8-endo cationic carbocyclisation of biphenyl-embedded enynes (C-C bond between tertiary carbocation from protonated alkene and distal alkyne carbon); TfOH 10 mol%, vinyl cation trapped by H2O (1.1 equiv) or internal nucleophile. The conditions noted are these: the molecule shown is the open-chain precursor; 8-membered ring; 1,2-dichloroethane; 50.0 mM; 60.0 °C.
In the case of `CC(C)=Cc1ccccc1-c1ccccc1C#CCCO` [1u -> 6u], the ring closure, isolated yield came to 31%. Still for that read-out and setting: for `COc1cccc(CC#Cc2ccccc2-c2ccccc2C=C(C)C)c1` [1v -> 6v] the value was 29%.

The data set is the same for the next values; noted with them: the molecule shown is the open-chain precursor; 8-membered ring; 1,2-dichloroethane; 50.0 mM; 60.0 °C; 2.0 h.
As for `CC#Cc1cc(Cl)ccc1-c1ccccc1C=C(C)C` [1q -> 3q], the ring closure, isolated yield stood at 95%. Still for that read-out and setting: in the case of `CC#Cc1ccccc1-c1cc(Cl)ccc1C=C(C)C` [1p -> 3p] it was 99%; in that of `CC#Cc1cc(OC)ccc1-c1ccccc1C=C(C)C` [1s -> 3s], 70%; in that of `CC#Cc1ccccc1-c1ccc(OC)cc1C=C(C)C` [1r -> 3r], 82%. The same measure, in the same setting: in the case of `CC#Cc1ccccc1-c1ccccc1C=C(C)C` [1b -> 3b] it was 99%; in that of `CC#Cc1cc(OC)c(C)c(OC)c1-c1cc(Cl)ccc1C=C(C)C` [1t -> 3t], 45%.
